Experiments:
CRP [1] = target: T1, CRP (Homo sapiens, UniProt P02741); test: Size exclusion chromatography of CRP/ligand cross linking; assay type: binding; parameters: The final concentrations were 0.73 μM native pentameric CRP; from tissue
T1 sequence (P02741 19-224): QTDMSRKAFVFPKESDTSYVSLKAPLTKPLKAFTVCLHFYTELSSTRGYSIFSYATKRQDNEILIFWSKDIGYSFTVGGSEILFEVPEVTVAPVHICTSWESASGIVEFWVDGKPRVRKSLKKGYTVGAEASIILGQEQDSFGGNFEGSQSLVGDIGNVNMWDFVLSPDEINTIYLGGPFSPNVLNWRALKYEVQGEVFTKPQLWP

CRP [2] = target: T1, CRP; test: In vivo clearance of CRP/ligand complexes generated in vivo in mice; parameters: The final concentrations were 0.73 μM native pentameric CRP; from tissue; settings: i.v. bolus 18 h after s.c. CRP (1 mg)
Experimental: (i) Two groups of 8 wild-type C57BL/6 mice (male; 23-27 weeks old) were used: group 1 (control) and group 2 (treated).
(ii) Both groups of animals were given 200 μl of human CRP (5 mg/ml in azide-free TC buffer) subcutaneously on day 1.
(iii) On day 2 (+18 h), control animals were given a 200 μl intravenous bolus of TC buffer. Treated animals were given a 200 μl iv bolus of ligand (prepared at 5 mg/ml in TC buffer).
(iv) One timed blood sample and a terminal blood sample were collected from each mouse into heparinised tubes and weighed. This generated data in quadruplicate at 4 time points, normally 30, 60, 120 and 360 minutes.
(v) ^125I radiolabel was measured (Perkin Elmer Wizard; protocol #1) in whole blood to quantify total CRP. In some cases, electroimmunoassay as above was also used to determine total CRP concentration.
(vi) Plasma was prepared and free CRP determined by Roche immunoassay.
Subcutaneous injection of human CRP provided circulating CRP concentrations with which to test for effects of our ligands in vivo. (Table 4).

CRP [3] = target: T1, CRP; test: In vivo clearance of preformed CRP/ligand complexes in mice; parameters: from tissue; settings: complexes formed in vitro, injected intravenously
Experimental: (i) CRP at 1 mg/ml in azide-free TC buffer (containing, in some experiments, ˜10^6 cpm/ml of ^125I-CRP) was incubated with a 5-fold molar excess of ligand. A control (ligand-free) sample was also prepared. Cross linking of CRP was confirmed by SEC in TC buffer of a small sample of complex.
(ii) Two groups of eight wild-type C57BL/6 mice (male; 23-27 weeks old) were used.
The complex or control (200 μl, 200 μg CRP) was injected into the tail vein of each mouse. A single timed collection of blood was taken from the tail vain of each mouse; a second terminal sample was also collected. This yielded 4 samples each at 30, 60, 120 and 180 min for control and treated groups.
(iii) Blood samples were weighed and CRP measured in the Roche assay and, in some cases by electroimmunoassay (4, 13). ^125I-CRP was measured by gamma counting (Perkin Elmer Wizard; protocol #1).
Complexes were prepared in vitro using ^125I-labelled CRP and an excess of ligand, and the mixture was then injected intravenously into mice. Clearance of CRP was monitored by counting of the ^125I-CRP tracer and stable CRP-ligand complexes were detected by lack of CRP detection in the Roche assay of the plasma samples. The formation of CRP/ligand complexes was confirmed by size exclusion chromatography before use in each in vivo experiment.

CRP [4] = target: T1, CRP; test: Roche immunoturbidimetric assay: pure CRP; assay type: binding; parameters: The final concentrations were 0.73 μM native pentameric CRP; from tissue; settings: pure CRP in TC buffer; read-out: IC50 (μM), SD; inhibition of Roche CRP immunoreactivity
How it was run: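 Purified human CRP (final 0.73 μM pentamer) incubated 1 h at 37° C with ligand (final 625-0.03 μM) in TC buffer. Remaining CRP quantified by Roche microparticle-enhanced immunoturbidimetric assay, one antibody recognising the ligand-binding B-face, as % of buffer control; EC50 from 4-parameter logistic fit.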

O=P(O)(OCCCCCCCCOP(=O)(O)O[C@@H]1CN2CCC1CC2)O[C@@H]1CN2CCC1CC2 [Pk-023, [(3S)-1-azabicyclo[2.2.2]octan-3-yloxy]({[8-({[(3S)-1-azabicyclo[2.2.2]octan-3-yloxy](hydroxy)phosphoryl}oxy)octyl]oxy})phosphinic acid]
Stable to rechromatography (CRP [1]; CRP/ligand complex re-chromatographed in absence of free ligand): remained intact and Yes | CRP elution volume from Superdex 200 after pre-incubation with ligand (CRP [1]; native CRP pentamer elutes at 13.9 ml): 12.6 mL | Effect on detection of circulating CRP in the Roche assay (CRP [2]): the same as BPC8 | Time Roche CRP value suppressed (persistence of preformed complex in circulation) (CRP [3]): suppressed at 15 min but was had returned to control value at 60 min | IC50 (CRP [4]): 0.6 µM

Source: patent US20230118142A1, “AGENTS FOR USE IN THE TREATMENT OF TISSUE DAMAGE” (UCL BUSINESS LTD, priority 2020, published 2023)
